{
  "source": "patent US20240024273A1",
  "about": "“TOPICAL ADMINISTRATION OF 2-(DIETHYLAMINO)ETHYL 2-(4-ISOBUTYLPHENYL)PROPRIONATE FOR TREATMENT OF DISEASES” (TECHFIELDS PHARMA CO., LTD., priority 2020, published 2024)",
  "test_system": "Subjects with Osteoarthritis of the Knee",
  "assay": "Second Phase 2 study: safety (treatment-emergent adverse events)",
  "format": "in vivo, human",
  "settings": "Oral Ibuprofen 3 × 400 mg, N = 71",
  "excerpt": "Safety assessments will be performed at each visit and will include assessment of AEs, vital signs (blood pressure, pulse rate, and oral temperature), clinical laboratories, physical examination, skin irritation, and electrocardiograms (ECGs) as indicated in the study flow chart, Table 47.\nSafety assessments will include AEs, vital signs (blood pressures, pulse rate, and oral temperature), clinical laboratories, physical examination, skin irritation, and ECGs at various time points during the study as indicated in the study flow chart.\nAdverse events of interest include: local skin reactions around the treated knee(s), upper stomach pain, GI bleeding, serious cardiovascular side effects (e.g., thrombotic events, myocardial infarction, or stroke), jaundice, elevated liver function tests, and nausea.\nSafety analyses will be conducted on the SAS. Safety parameters will be listed and summarized using standard descriptive statistics, as appropriate. No formal statistical analyses are planned.",
  "data": [
    {"smiles": "CC(C)Cc1ccc(C(C)C(=O)O)cc1", "note": "(stereo not shown) [Ibuprofen, 2-(4-isobutylphenyl)propionic acid, reference compound]", "values": [
      {"measurement": "Infections and Infestations: number of adverse events", "value": 32},
      {"measurement": "Metabolism and Nutrition Disorders: number of adverse events", "value": 8},
      {"measurement": "Metabolism and Nutrition Disorders: percentage of subjects with adverse events", "value": 11.3, "unit": "%"},
      {"measurement": "Metabolism and Nutrition Disorders: subjects with adverse events", "value": 8},
      {"measurement": "Tooth Infection: number of adverse events", "value": 3},
      {"measurement": "Urinary Tract Infection: number of adverse events", "value": 11},
      {"measurement": "Urinary Tract Infection: subjects with adverse events, number (percentage)", "value": "10(14.1%)"}
    ]}
  ]
}
